The source of these data is US20210161131A1, “cis-p-Menthane-1,8-Di-secondary Amine Compounds as well as Their Preparation Methods and Application in Weed Control” (RESEARCH INSTITUTE OF FORESTRY NEW TECHNOLOGY, CHINESE …, priority 2019, published 2021).

In the assay the test system is barnyard grass seeds. As to the kind of experiment: Petri dish seed germination method: inhibition of root and stem growth of barnyard grass. The class given is in vivo. The following applies: 96 hours incubation. The protocol: (§1) Step 2: Accurately weigh 1 mmol cis-p-menthane-1,8-di-Schiff base compounds and cis-p-menthane-1,8-di-secondary amine compounds respectively, dissolve each of them with 0.25 mL DMF, and add a drop of Tween 80 in each resulted solution. After being fully dissolved, each solution is transferred to a 100 mL volumetric flask respectively and then diluted to the mark with distilled water to obtain a solution with a concentration of 10 mmol/L as the mother liquor. The two-fold dilution method is used to prepare diluted solutions with a series of concentrations (the concentrations of DMF and Tween 80 in the diluted solutions are the same as those in the mother liquor).
(§2) Barnyard grass seeds are placed in a 28° C. incubator and are soaked in an appropriate amount of distilled water for 12 hours there. After the clean water is filtered out, the seeds are then placed in the 28° C. incubator for 24 hours to germinate. Spread 2 pieces of filter paper in each of several Petri dishes, and place 10 barnyard grass seeds with the same size in each dish. Repeat each treatment for three times The dishes are divided into two groups: test dishes and control dishes. Add into each test dish 10 mL of the sample solution with the corresponding concentration of the target compound, and add into each control dish the same amount of the mixture of water, DMF and Tween 80 as the blank control. Add 10 seeds to each of the dishes (both test dishes and control dishes), place them in an artificial climate incubator, and incubate them for 96 hours under a temperature of 28° C., an illumination of 5000 1×, a photoperiod of day:night=16:8 and a relative humidity of 70-80%. The experimental data is processed and analyzed with DPS software to calculate the inhibition rate (y) of cis-p-menthane-1,8-di-secondary amine compounds on the root growth or stem growth of barnyard grass seeds.
Wherein, y is the inhibition rate of root growth or stem growth (%), x0 is the root length or stem length of the control, and x1 is the root length or stem length of the sample.
as §1, with “Accurately” for “Step 2: Accurately”, “cis-p-menthane-1,8-bis-(4-chlorophenyl)Schiff” for “cis-p-menthane-1,8-di-Schiff”, “base” for “base compounds”, “cis-p-menthane-1,8-bis-(4-chlorobenzyl)amine” for “cis-p-menthane-1,8-di-secondary amine compounds”, “(5 mmol/L, 2.5 mmol/L, 1.25 mmol/L, 0.625 mmol/L, 0.3125 mmol/L and 0.1563 mmol/L; the” for “(the”
as §2, with “placed in a 30° C. incubator” for “placed in the 28° C. incubator”, “in each Petri dish,” for “in each of several Petri dishes,”, “each Petri dish, and place” for “several Petri dishes, and place”, “with the above corresponding concentration” for “with the corresponding concentration”, “with DPS software.” for “with DPS software to calculate the inhibition rate (y) of cis-p-menthane-1,8-di-secondary amine compounds on the root growth or stem growth of barnyard grass seeds.”

Take `COc1ccc(C=NC2(C)CCC(C(C)(C)N=Cc3ccc(OC)cc3)CC2)cc1` (stereo not drawn) [cis-p-menthane-1,8-bis-(4-methoxybenzyl)Schiff base, reference compound]: the “inhibition rate on the root growth of barnyard grass seeds” value (from here on “inhibition rate on the root growth”) runs as follows: (0.3125 mmol/L) 70.7%; (0.625 mmol/L) 66.7%; (1.25 mmol/L) 55.3%; (2.5 mmol/L) 28.1%; (5 mmol/L) 7.6%. Moreover, the “inhibition rate on the stem growth of barnyard grass seeds” value (shortened to “inhibition rate on the stem growth”) is 15.4% (0.3125 mmol/L); 6.9% (0.625 mmol/L); 4% (1.25 mmol/L); 8.0% (2.5 mmol/L); 2.1% (5 mmol/L).

For `COc1ccc(CNC2(C)CCC(C(C)(C)NCc3ccc(OC)cc3)CC2)cc1` (stereo not drawn) [cis-p-menthane-1,8-bis-(4-methoxybenzyl)amine], the “inhibition rate on the root growth” value (0.15625 mmol/L) was determined as 37.8%; the “inhibition rate on the root growth” value (0.3125 mmol/L) amounted to 42.2%; the “inhibition rate on the root growth” value (0.625 mmol/L) is 88.7%; the “inhibition rate on the root growth” value (1.25 mmol/L) is given as 95.1%; the “inhibition rate on the root growth” value (2.5 mmol/L) came out at 96.5%; the “inhibition rate on the root growth” value (5 mmol/L) is 100.0%. Moreover, the “inhibition rate on the stem growth” value was 9.9% (0.15625 mmol/L); 27.9% (0.3125 mmol/L); 72.5% (0.625 mmol/L); 70.6% (1.25 mmol/L); 84.4% (2.5 mmol/L); 84.3% (5 mmol/L).

For the compound `Cc1ccc(CNC(C)(C)[C@H]2CC[C@@](C)(NCc3ccc(C)cc3)CC2)cc1` [cis-p-menthane-1,8-bis-(4-methylbenzyl)amine], the “inhibition rate on the root growth” value by setting is: (0.15625 mmol/L) 42.5%; (0.3125 mmol/L) 86.6%; (0.625 mmol/L) 89.6%; (1.25 mmol/L) 91.9%; (2.5 mmol/L) 95.2%; (5 mmol/L) 100.0%. For the same compound, the “inhibition rate on the stem growth” value stood at 42.1% (0.15625 mmol/L); 64.6% (0.3125 mmol/L); 65.9% (0.625 mmol/L); 74.7% (1.25 mmol/L); 87.1% (2.5 mmol/L); 93.3% (5 mmol/L).

As for `CSc1ccc(CNC2(C)CCC(C(C)(C)NCc3ccc(SC)cc3)CC2)cc1` (stereo not drawn) [cis-p-menthane-1,8-bis-(4-methylthiobenzyl)amine], the “inhibition rate on the root growth” value runs as follows: (0.15625 mmol/L) 32.0%; (0.3125 mmol/L) 58.1%; (0.625 mmol/L) 77.2%; (1.25 mmol/L) 90.8%; (2.5 mmol/L) 96.0%; (5 mmol/L) 98.5%. In addition, the “inhibition rate on the stem growth” value (0.15625 mmol/L) is 22.8%; the “inhibition rate on the stem growth” value (0.3125 mmol/L) turned out to be 66.0%; the “inhibition rate on the stem growth” value (0.625 mmol/L) worked out at 66.2%; the “inhibition rate on the stem growth” value (1.25 mmol/L) amounted to 83.4%; the “inhibition rate on the stem growth” value (2.5 mmol/L) was 77.5%; the “inhibition rate on the stem growth” value (5 mmol/L) was found to be 85.1%.

For the compound `CC1(N=Cc2ccc(C(F)(F)F)cc2)CCC(C(C)(C)N=Cc2ccc(C(F)(F)F)cc2)CC1` (stereo not drawn) [cis-p-menthane-1,8-bis-(4-trifluoromethylbenzyl)Schiff base, reference compound], the “inhibition rate on the stem growth” value is listed as 20.6% (0.3125 mmol/L); 30.9% (0.625 mmol/L); 14.6% (1.25 mmol/L); 19.5% (2.5 mmol/L); 31.1% (5 mmol/L). For the same compound, the “inhibition rate on the root growth” value reads like this: (0.625 mmol/L) 0.8%; (1.25 mmol/L) 17.5%; (2.5 mmol/L) 7.1%; (5 mmol/L) 48.4%.

With `CC1(NCc2ccc(C(F)(F)F)cc2)CCC(C(C)(C)NCc2ccc(C(F)(F)F)cc2)CC1` (stereo not drawn) [cis-p-menthane-1,8-bis-(4-trifluoromethylbenzyl)amine], the “inhibition rate on the root growth” value (0.15625 mmol/L) is 1.0%; the “inhibition rate on the root growth” value (0.3125 mmol/L) was determined as 62.8%; the “inhibition rate on the root growth” value (0.625 mmol/L) was 82.3%; the “inhibition rate on the root growth” value (1.25 mmol/L) is 86.1%; the “inhibition rate on the root growth” value (2.5 mmol/L) turned out to be 100.0%; the “inhibition rate on the root growth” value (5 mmol/L) is recorded as 100.0%. The “inhibition rate on the stem growth” value runs as follows: (0.15625 mmol/L) 11.6%; (0.3125 mmol/L) 42.2%; (0.625 mmol/L) 55.1%; (1.25 mmol/L) 67.0%; (2.5 mmol/L) 83.4%; (5 mmol/L) 78.5%.

As to `CC1(NCc2ccc(Br)o2)CCC(C(C)(C)NCc2ccc(Br)o2)CC1` (stereo not drawn) [cis-p-menthane-1,8-bis-(5-bromofuran-2-methyl)amine], the “inhibition rate on the root growth” value (0.15625 mmol/L) is reported as 42.2%; the “inhibition rate on the root growth” value (0.3125 mmol/L) is recorded as 39.6%; the “inhibition rate on the root growth” value (0.625 mmol/L) is 54.8%; the “inhibition rate on the root growth” value (1.25 mmol/L) is 61.5%; the “inhibition rate on the root growth” value (2.5 mmol/L) came out at 84.4%; the “inhibition rate on the root growth” value (5 mmol/L) is recorded as 90.7%. The “inhibition rate on the stem growth” value (0.15625 mmol/L) came to 10.1%; the “inhibition rate on the stem growth” value (0.3125 mmol/L) was 5.6%; the “inhibition rate on the stem growth” value (0.625 mmol/L) is 11.6%; the “inhibition rate on the stem growth” value (1.25 mmol/L) is reported as 30.3%; the “inhibition rate on the stem growth” value (2.5 mmol/L) came out at 50.5%; the “inhibition rate on the stem growth” value (5 mmol/L) is 71.8%.

On to `Cc1ccc(CNC(C)(C)[C@H]2CC[C@@](C)(NCc3ccc(C)o3)CC2)o1` [cis-p-menthane-1,8-bis-(5-methylfuran-2-methyl)amine], for which the “inhibition rate on the root growth” value is listed as 23.1% (0.15625 mmol/L); 41.3% (0.3125 mmol/L); 24.7% (0.625 mmol/L); 50.3% (1.25 mmol/L); 64.4% (2.5 mmol/L); 95.5% (5 mmol/L). For the same compound, the “inhibition rate on the stem growth” value (0.15625 mmol/L) stood at 7.2%; the “inhibition rate on the stem growth” value (0.3125 mmol/L) came to 12.5%; the “inhibition rate on the stem growth” value (0.625 mmol/L) was 6.8%; the “inhibition rate on the stem growth” value (1.25 mmol/L) worked out at 17.1%; the “inhibition rate on the stem growth” value (2.5 mmol/L) was found to be 36.5%; the “inhibition rate on the stem growth” value (5 mmol/L) was 79.8%.
